“Also recorded” adds a separate entry of the source.
Tests used:
AMPK = assay: Cell based ELISA (pAMPK/pACC) in primary rat hepatocytes
Experimental: Primary rat hepatocytes were isolated by collagenase (type4, Invitrogen: Cat# 17104-019) digestion as described previously. Digested cells were suspended in DMEM supplemented with 10% FBS. Cells were seeded into 96-well plate (20,000 cells per well) pre-coated with collagen (2 mg/ml). As the cells were metabolically active, medium was changed after cells have attached and allowed to incubate overnight before performing cell based assay.
Approximately 40,000 cells per well were seeded into a 96 well plate (Biofil, cat# TCP011096) and incubated overnight at 37 °C and 5% CO2. After the seeded cells reached 80% confluence, cells were treated with Activator-3 with different working concentrations and 500 μM AICAR (Caymen chemicals, cat# 10010241-10) and incubated for 30 min to 2 h (depending upon the primary antibody used) at 37 °C and 5% CO2. Medium was aspirated and fixed with 4% of formaldehyde solution (diluted in 1X PBS) incubated for 1 h at 4 °C on shaker. Cells were washed with tween 20 (diluted in 1X PBS) on shaker for 5 minutes at room temperature (3 times). […] To quantify the bound primary antibody, cells were probed with a HRP conjugated secondary anti-rabbit antibody (1:2000 dilution, Bio-Rad; Cat# 170-6515) diluted in 1X PBST and incubated 2 h at RT on rocker. […] This reaction is stopped by adding 2 N H2SO4 and plate was immediately read at 450 nm using UV–Vis Spectrophotometer.

PFK1 = assay: PFK activity assay kit; format: biochemical; conditions: Activator-3 at 10 µM (≤10 µM)

## O=C(O)Cc1csc(Nc2ccc(C(F)(F)F)cc2)n1 [Activator-3, 2-[2-(4-(trifluoromethyl)phenylamino)thiazol-4-yl]acetic acid]
AMPK
  EC50: ~28 nM
PFK1
  effect on PFK1 activity: unaffected; also recorded: no effect

— paper PMC6018554, “2-[2-(4-(trifluoromethyl)phenylamino)thiazol-4-yl]acetic acid (Activator-3) is a potent activator of AMPK” (Scientific Reports, 2018)
